Data taken from patent publication US20230257366A1, “SULFUR-CONTAINING ISOINDOLINE DERIVATIVE, AND PREPARATION METHOD THEREFOR AND MEDICAL USE THEREOF” (JIANGSU HENGRUI PHARMACEUTICALS CO., LTD., priority 2020, published 2023).

Legend:
NCI-H929 xenograft tumor = experiment: Pharmacodynamic test: NCI-H929 xenograft tumor in CB-17 SCID mice; assay type: in vivo
Procedure: This experiment was performed to evaluate the inhibition effect of the compound of Example 6 and the control example CC-92480 on the growth of human multiple myeloma cell NCI-H929 xenograft tumor in CB-17 SCID mice.
Compound of Example 6; control example CC-92480 (see compound 2 of WO2019014100A1, synthesized according to the method disclosed therein)
Solutions of the compound of Example 6 and the control example CC-92480 were prepared with 5% DMSO+20% PEG400+70% (10% TPGS)+5% (1% HPMC K100LV).
Thirty CB-17 SCID female mice, purchased from Beijing Vital River Laboratory Animal Technology Co., Ltd. (certificate No. 20170011006049, SCXK (Shanghai) 2017-0011), weighing about 19 g at the time of purchase, were bred at 5 mice/cage (in 12/12 hour light/dark cycle, at a constant temperature of 23±1° C. and humidity of 50%-60%) and had free access to food and water.
After adaptive feeding, the CB-17 SCID mice were grouped as follows:
NCI-H929 cells in a logarithmic growth phase were inoculated subcutaneously into the right flank of 30 female CB-17 SCID mice at 5×10^6 cells/mouse/100 μL (containing 50 μL of Matrigel). After 10 days, when the tumor volume of the tumor-bearing mice reached about 200 mm^3, the mice were randomly divided into 3 groups according to the tumor volume and body weight: vehicle control group, CC-92480-1 mpk, compound of Example 6-1 mpk, with 7 mice in each group. The day of grouping was set as Day 0 (D0), and intragastric administration was performed once a day for 11 days (Table 2). For the tumor-bearing mice, the tumor volume was measured with a vernier caliper and the body weight was measured with a balance twice a week, and the data were recorded.
All data were plotted and statistically analyzed using Excel and GraphPad Prism 5 software.
The tumor volume (V) was calculated as follows: V=½×a×b^2, where a and b represent length and width, respectively.
The relative tumor proliferation rate T/C (%)=(T−T0)/(C−C0)×100(%), where T and C are the tumor volume of animals at the end of the experiment in the treatment group and control group, respectively; T0 and C0 are the tumor volume of animals at the beginning of the experiment in the treatment group and control group, respectively.
Tumor growth inhibition TGI (%)=1−T/C (%), and when TGI (%) exceeds 100%, no specific value will be shown, and it is expressed only by >100%.
Tumor regression (%)=[(T0−T)/T0]×100(%).

[1] = Pharmacokinetic evaluation in mice after intragastric administration (LC/MS/MS); assay type: in vivo; details: female, mouse, in vivo, po, 2 mg/kg
Procedure: The drug concentration in the plasma of the test animals (mice) at different time points after intragastric administration of the compound of Example 6 and the control example CC-92480 was determined by an LC/MS/MS method. The pharmacokinetic behavior of the compound of the present disclosure in mice was studied and its pharmacokinetic profile was evaluated.
(§1) Compound of Example 6 and control example CC-92480.
Eighteen mice, female, purchased from Beijing Vital River Laboratory Animal Technology Co., Ltd., with animal production license number of SCXK (Shanghai) 2017-0005.
A certain amount of compound of Example 6 was weighed, dissolved by adding 5% by volume of DMSO and 5% Tween 80 (Shanghai Titan Scientific Co., Ltd.), and then prepared into a 0.1 mg/mL clear solution by adding 90% normal saline.
A certain amount of the control example CC-92480 was weighed, dissolved by adding 5% by volume of DMSO and 5% Tween 80 (Shanghai Titan Scientific Co., Ltd.), and then prepared into a 0.1 mg/mL clear solution by adding 90% normal saline.
Nine mice were intragastrically administered with the compound of Example 6 at a dose of 2 mg/kg and at a volume of 0.2 mL/10 g.
Nine mice were intragastrically administered with the control example CC-92480 at a dose of 2 mg/kg and at a volume of 0.2 mL/10 g.
Mice were intragastrically administered with the compound of Example 6 and the control example CC-92480, and 0.2 mL of blood was collected before the administration and 0.25 h, 0.5 h, 1.0 h, 2.0 h, 4.0 h, 6.0 h, 8.0 h, 11.0 h and 24.0 h after the administration (3 animals at each time point), placed in EDTA-K2 anticoagulation tubes, and centrifuged at 10,000 rpm for 1 min(4° C.). Plasma was separated within 1 h, and stored at −20° C. for testing. The process from blood collection to centrifugation was performed under an ice bath.
The content of the test compounds at different concentrations in mouse plasma after the administration was determined: 25 μL of mouse plasma at each time point after the administration was mixed with 50 μL (100 ng/mL) of internal standard solution camptothecin (National Institutes for Drug Control) and 175 μL of acetonitrile. The mixture was vortexed for 5 min and centrifuged for 10 min (3700 rpm/min), and 1 μL of the supernatant of the plasma sample was taken for LC/MS/MS assay (API4000 triple quadrupole tandem mass spectrometer, Applied Biosystems, USA; Shimadzu, LC-30AD ultra high performance liquid chromatography system, Shimadzu, Japan).

[2] = Plasma stability in monkey plasma (LC-MS/MS); assay type: in vitro ADME; details: monkey, plasma
Procedure: The stability of the compound of Example 6 and the control example CC-92480 after incubation in cryopreserved monkey plasma at 37° C. for 0 min, 15 min, 30 min, 60 min, 120 min, 180 min and 240 min was determined quantitatively by LC-MS/MS.
as §1
Monkey plasma was purchased from Shanghai Medicilon Inc.
A certain amount of the compound of Example 6 was weighed and prepared with DMSO to obtain a 30 mM stock solution. A certain volume of the stock solution was diluted into a solution I at a concentration of 1600 μM with DMSO; and a certain volume of the solution I at 1600 μM was diluted with 50% methanol to obtain a working solution II at a concentration of 16 μM. A 30 mM stock solution, a 1600 μM solution I′, and a 16 μM working solution II′ of CC-92480 were prepared as described above.
5 μL of the working solutions at 16 μM of the compound of Example 6 and the control example CC-92480 were each added to 75 μL of plasma to make the final concentration of the compounds of 1 μM. The samples were incubated under a 37° C. water bath for 0 min, 15 min, 30 min, 60 min, 90 min, 120 min, and 180 min. […] The supernatant was analyzed by LC-MS with a sample injection volume of 2 μL.

With `N#Cc1ccc(N2CCN(Cc3ccc(COc4cccc5c4CN([C@H]4CCC(=O)NC4=O)C5=O)cc3)CC2)c(F)c1` [CC-92480, reference compound] the “Mean tumor volume D0” value (NCI-H929 xenograft tumor; 1 mg/kg qd, baseline at day of grouping (D0), n=7) was 157.2 mm^3, the “Number of remaining animals/group” value (NCI-H929 xenograft tumor; 1 mg/kg qd/11d po) was 7/7 and the “% tumor regression D11” value (NCI-H929 xenograft tumor; 1 mg/kg qd/11d po (i.g.), D11) was 34%. For the same molecule, the “Mean tumor volume D11” value (NCI-H929 xenograft tumor; 1 mg/kg qd/11d po (i.g.), D11, n=7) was 103.6 mm^3, the AUC [1] was 1940 ng·h/mL and the CL/F [1] was 17.2 mL/min/kg. For the same molecule, the Cmax [1] was 692 ng/mL, the MRT [1] was 2.3 h and the Vd/F [1] was 1.96 L/kg. It also gave a half-life [1] of 1.3 h and a half-life at 1 µM [2] of 3.32 h.
